According to article PMC2925244 (Current biology : CB, 2010):

Columns and labels:
Assay type in all cases: cell-based
hTAS2R31 = biological target: T1, hTAS2R31 (Homo sapiens, UniProt P59538); test: FLIPR calcium imaging in HEK293 cells stably expressing hTAS2R31 and G16gust44
T1 sequence (P59538 1-309): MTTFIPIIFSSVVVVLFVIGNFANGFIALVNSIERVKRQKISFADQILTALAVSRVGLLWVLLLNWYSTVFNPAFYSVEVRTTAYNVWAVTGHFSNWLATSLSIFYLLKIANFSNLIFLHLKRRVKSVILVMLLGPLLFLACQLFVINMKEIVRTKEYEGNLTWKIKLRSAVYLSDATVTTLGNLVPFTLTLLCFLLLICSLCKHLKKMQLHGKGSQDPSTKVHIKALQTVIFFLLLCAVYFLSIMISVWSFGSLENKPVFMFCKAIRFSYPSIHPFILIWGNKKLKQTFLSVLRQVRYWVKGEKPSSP

hTAS2R40 = hTAS2R40 (Homo sapiens, UniProt P59535); test: calcium imaging in transfected cells, […] GIV3727 against […] cohumulone; conditions: read-out: % activation in presence of GIV3727
hTAS2R7 = biological target: T2, hTAS2R7 (Homo sapiens, UniProt Q9NYW3); test: calcium imaging in transfected cells, […] GIV3727 against […] cromolyn; conditions: read-out: % activation in presence of GIV3727
T2 sequence (Q9NYW3 1-318): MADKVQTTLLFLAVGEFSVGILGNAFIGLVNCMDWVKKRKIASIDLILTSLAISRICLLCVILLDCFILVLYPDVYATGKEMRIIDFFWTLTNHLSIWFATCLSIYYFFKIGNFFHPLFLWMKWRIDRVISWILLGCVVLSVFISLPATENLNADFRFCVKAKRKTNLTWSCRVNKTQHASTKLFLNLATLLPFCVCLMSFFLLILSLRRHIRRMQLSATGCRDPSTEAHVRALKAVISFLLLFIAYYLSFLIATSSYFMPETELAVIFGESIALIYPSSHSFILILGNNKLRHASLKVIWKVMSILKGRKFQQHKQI

hTAS2R43 [1] = biological target: T3, hTAS2R43 (Homo sapiens, UniProt P59537); test: calcium imaging in transfected cells, […] GIV3727 against […] aristolochic acid; conditions: read-out: % activation in presence of GIV3727
T3 sequence (P59537 1-309): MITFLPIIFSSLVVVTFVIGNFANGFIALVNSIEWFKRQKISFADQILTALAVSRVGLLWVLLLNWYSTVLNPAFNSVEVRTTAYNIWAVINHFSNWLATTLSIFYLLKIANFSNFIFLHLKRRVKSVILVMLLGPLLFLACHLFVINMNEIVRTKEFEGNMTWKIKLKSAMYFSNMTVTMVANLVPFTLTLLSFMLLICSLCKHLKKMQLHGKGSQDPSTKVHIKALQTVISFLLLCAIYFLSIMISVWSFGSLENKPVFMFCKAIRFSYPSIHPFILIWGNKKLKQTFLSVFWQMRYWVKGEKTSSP

hTAS2R4 = biological target: T4, hTAS2R4 (Homo sapiens, UniProt Q9NYW5); test: calcium imaging in transfected cells, […] GIV3727 against […] colchicine; conditions: read-out: % activation in presence of GIV3727
T4 sequence (Q9NYW5 1-299): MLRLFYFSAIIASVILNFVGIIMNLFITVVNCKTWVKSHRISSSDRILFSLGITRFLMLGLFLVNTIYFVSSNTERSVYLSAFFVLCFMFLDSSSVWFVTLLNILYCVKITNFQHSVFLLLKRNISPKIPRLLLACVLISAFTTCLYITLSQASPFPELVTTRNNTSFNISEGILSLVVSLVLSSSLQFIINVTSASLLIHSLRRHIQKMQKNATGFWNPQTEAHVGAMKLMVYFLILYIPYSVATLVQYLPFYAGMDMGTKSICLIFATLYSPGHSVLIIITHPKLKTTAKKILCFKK

hTAS2R43 [2] = biological target: T3, hTAS2R43; test: calcium imaging in transfected cells, agonist at […]

Sequence of hTAS2R40 (P59535 whole entry): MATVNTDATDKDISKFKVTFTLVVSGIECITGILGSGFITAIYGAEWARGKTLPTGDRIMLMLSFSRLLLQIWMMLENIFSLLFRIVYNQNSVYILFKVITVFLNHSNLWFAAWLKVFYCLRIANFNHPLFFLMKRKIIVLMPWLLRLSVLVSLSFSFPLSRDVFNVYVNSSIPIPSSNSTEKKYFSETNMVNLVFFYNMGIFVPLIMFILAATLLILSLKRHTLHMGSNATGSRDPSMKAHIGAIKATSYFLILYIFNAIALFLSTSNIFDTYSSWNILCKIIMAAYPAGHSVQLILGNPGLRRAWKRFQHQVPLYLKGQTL

Question: With `CC1CCC(CCCC(=O)O)C1(C)C` (stereo not drawn) [GIV3727, 4-(2,2,3-trimethylcyclopentyl)butanoic acid] as the compound, how does the IC50 (hTAS2R31) read?
Answer: The IC50 was 6.4 ± 2.4 µM.

Question: What about the activity at 25 µM (hTAS2R40) of the same compound?
Answer: The activity at 25 µM was 3.2 ± 6.5%.

Question: And the activity at 25 µM (hTAS2R7)?
Answer: Its activity at 25 µM is 47.8 ± 17%.

Question: What about the activity at 25 µM (hTAS2R43 [1]) of the same compound?
Answer: Its activity at 25 µM is 2.5 ± 4.9%.

Question: And the activity at 25 µM (hTAS2R4)?
Answer: Its activity at 25 µM is 45.8 ± 17.4%.

Question: With `COc1cccc2c1cc([N+](=O)[O-])c1c(C(=O)O)cc3c(c12)OCO3` [aristolochic acid] as the compound, how does the “calcium imaging in transfected cells, agonist at 0.3 μM” value (hTAS2R43 [2]) read?
Answer: Its value is “confers sensitivity to aristolochic acid, which activates hTAS2R43 but is inactive in the native hTAS2R46 (Figure S4)”.
